Laboratory results as given in BindingDB's records for doi:10.1021/acs.jmedchem.8b01719 (Glaxosmithkline, 2019).

How the values were obtained:
[1] = Inhibition of HCV genotype 1b wild-type NS5B RNA dependent RNA polymerase infected in human HuH7 Lunet replicon cells assessed as reduction in viral replication after 48 hrs by steady-glo luciferase reporter gene assay
[2] = Inhibition of HCV genotype 1a wild-type NS5B RNA dependent RNA polymerase transfected in human HuH7 Lunet replicon cells assessed as reduction in viral replication after 3 days by steady-glo luciferase reporter gene assay
[3] = Inhibition of HCV genotype 1b NS5B RNA dependent RNA polymerase C316N mutant infected in human HuH7 Lunet replicon cells assessed as reduction in viral replication after 48 hrs by steady-glo luciferase reporter gene assay
[4] = Inhibition of HCV genotype 1a NS5B RNA dependent RNA polymerase C316Y mutant transfected in human HuH7 Lunet replicon cells assessed as reduction in viral replication after 3 days by steady-glo luciferase reporter gene assay

Row | SMILES | EC50 [1] [nM] | EC50 [2] [nM] | EC50 [3] [nM] | EC50 [4] [nM]
1 | CNC(=O)c1c(-c2ccc(F)cc2)oc2cc(-c3ncoc3-c3ccc(B(O)O)c(F)c3)c(C3CC3)cc12 | 4 | 3.4 | 6.3 | 30
2 | CNC(=O)c1c(-c2ccc(F)cc2)oc2cc(N(Cc3ccc(B(O)O)cc3C(F)(F)F)S(C)(=O)=O)c(C3CC3)cc12 | 5 | – | 19 | –
3 | CNC(=O)c1c(-c2ccc(F)cc2)oc2cc(N(C(C)c3ccc4c(c3)COB4O)S(C)(=O)=O)c(C3CC3)cc12 (centres undefined) | 25 | – | 830 | –
4 | CNC(=O)c1c(-c2ccc(F)cc2)oc2cc(-n3ccnc3-c3ccc(B(O)O)c(F)c3)c(C3CC3)cc12 | 50 | 18 | 400 | 2000
5 | CNC(=O)c1c(-c2ccc(F)cc2)oc2cc(N3C(=O)OCCC3c3ccc(B(O)O)cc3)c(C3CC3)cc12 (centres undefined) | 50 | 56 | 400 | 310
6 | CNC(=O)c1c(-c2ccc(F)cc2)oc2cc(N(c3ccc(B(O)O)c(Cl)c3)S(C)(=O)=O)c(C3CC3)cc12 | 2.5 | 1.2 | 4 | 11
7 | CNC(=O)c1c(-c2ccc(F)cc2)oc2cc(N3C(=O)CCC3c3ccc(B(O)O)cc3)c(C3CC3)cc12 (centres undefined) | 63 | – | 790 | –
8 | CNC(=O)c1c(-c2ccc(F)cc2)oc2cc(-n3nc(C)nc3-c3ccc(B(O)O)c(F)c3)c(C3CC3)cc12 | 13 | 6 | 400 | 630
9 | CNC(=O)c1c(-c2ccc(F)cc2)oc2cc(N(C3CCc4cc(B(O)O)ccc43)S(C)(=O)=O)c(C3CC3)cc12 (centres undefined) | 50 | 9.2 | 500 | 4400
10 | CNC(=O)c1c(-c2ccc(F)cc2)oc2cc(N(C3CCc4c(B(O)O)cccc43)S(C)(=O)=O)c(C3CC3)cc12 (centres undefined) | 40 | 11 | 320 | 1200
11 | CNC(=O)c1c(-c2ccc(F)cc2)oc2cc(-n3nnnc3-c3ccc(B(O)O)c(Cl)c3)c(C3CC3)cc12 | 5 | 3.8 | 40 | 660
12 | CNC(=O)c1c(-c2ccc(F)cc2)oc2cc(N(c3ccc(B(O)O)c(F)c3)S(C)(=O)=O)c(C3CC3)cc12 | 2 | 1 | 3.2 | 39
13 | CNC(=O)c1c(-c2ccc(F)cc2)oc2cc(N3C(=O)OCC3c3ccc(B(O)O)cc3)c(C3CC3)cc12 (centres undefined) | 16 | 8.3 | 200 | 2000
14 | CNC(=O)c1c(-c2ccc(F)cc2)oc2cc(-c3ncnn3-c3ccc(B(O)O)c(F)c3)c(C3CC3)cc12 | 2 | 1.2 | 4 | 24
15 | CNC(=O)c1c(-c2ccc(F)cc2)oc2cc(N(c3ccc(B(O)O)c(C(F)(F)F)c3)S(C)(=O)=O)c(C3CC3)cc12 | 4 | 1.1 | 7.9 | 17
16 | CNC(=O)c1c(-c2ccc(F)cc2)oc2cc(N(c3cccc(B(O)O)c3)S(C)(=O)=O)c(C3CC3)cc12 | 6.3 | 2.2 | 63 | 1900
17 | CNC(=O)c1c(-c2ccc(F)cc2)oc2cc(N3C(=O)OCC3c3cccc(B(O)O)c3)c(C3CC3)cc12 (centres undefined) | 100 | – | 1600 | –
18 | CNC(=O)c1c(-c2ccc(F)cc2)oc2cc(N(C3CCCc4cc(B(O)O)ccc43)S(C)(=O)=O)c(C3CC3)cc12 (centres undefined) | 100 | 28 | 250 | > 5000
19 | CNC(=O)c1c(-c2ccc(F)cc2)oc2cc(-n3ncnc3-c3ccc(B(O)O)c(F)c3)c(C3CC3)cc12 | 2 | 1.1 | 6.3 | 46
20 | CNC(=O)c1c(-c2ccc(F)cc2)oc2cc(N(c3ccc(B(O)O)cc3)S(C)(=O)=O)c(C3CC3)cc12 | 2.5 | 0.9 | 6.3 | 290
21 | CNC(=O)c1c(-c2ccc(F)cc2)oc2cc(N3C(=O)OC[C@@H]3c3ccc(B(O)O)c(F)c3)c(C3CC3)cc12 | 2 | 2.6 | 5 | 24
22 | CNC(=O)c1c(-c2ccc(F)cc2)oc2cc(-n3nccc3-c3ccc(B(O)O)c(F)c3)c(C3CC3)cc12 | 4 | 2.3 | 7.9 | 20
23 | CNC(=O)c1c(-c2ccc(F)cc2)oc2cc(N3C(=O)NCC3c3ccc(B(O)O)cc3)c(C3CC3)cc12 (centres undefined) | 250 | – | 3200 | –
24 | CNC(=O)c1c(-c2ccc(F)cc2)oc2cc(N(c3cc(Cl)c4c(c3)COB4O)S(C)(=O)=O)c(C3CC3)cc12 | 2.5 | 1.3 | 2.5 | 32
25 | CNC(=O)c1c(-c2ccc(F)cc2)oc2cc(N3C(=O)OC[C@@H]3c3cccc(F)c3)c(C3CC3)cc12 | 1600 | 290 | > 5000 | > 5000
26 | CNC(=O)c1c(-c2ccc(F)cc2)oc2cc(N3C(=O)OC[C@H]3c3ccc(B(O)O)c(F)c3)c(C3CC3)cc12 | 200 | 140 | 1600 | > 5000
